What all share (format): cell-based
Experiment [1] has as its system Renal cancer cell line ACHN cell. As to the kind of experiment: Growth inhibitory effect against cancer cell lines (3H-thymidine uptake), ACHN. The settings on record: Homo sapiens, ACHN. In a few lines:
(§1)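 Cells seeded at 1.0×10^4/well, grown 24 hrs, then exposed to compound in DMSO for 18 hrs before 6 hrs pulse with ^3H-thymidine (0.25 μCi/well). Harvested cell-incorporated radioactivity counted; IC50 is the concentration halving uptake versus DMSO control, triplicate.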

Experiment [2] has as its system colorectal cancer cell line HT-29 cells. As to the kind of experiment: Growth inhibitory effect against cancer cell lines (3H-thymidine uptake), HT-29. As to conditions: Homo sapiens, HT-29, inhibition of 3H-thymidine uptake; test substance 18 hrs, then 3H-thymidine 6 hrs; triplicate. In a few lines:
as §1

In a further experiment the test system is p15 protein. As to the kind of experiment: Evaluation of p15 induction activity (Western blotting). As to conditions: test substance 0.1 μM, 24 hrs, ACHN cells or HT-29 cells, compared to DMSO, n=2. In outline: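 p15 protein quantified by densitometry of anti-p15 Western blots (10 μg protein per lane, mean of n=2). Samples came from HT-29 or ACHN cells given 0.1 μM compound for 24 h after 24 h plating, with DMSO as control.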
In general terms: A western blot detects proteins with antibodies after separation by electrophoresis.

In a further experiment the test system is p27 protein. As to the kind of experiment: p27 protein induction test (Western blotting). As to conditions: test substance (0.1 1M), 24 hrs, ACHN cells or HT-29 cells, compared to DMSO, n=2. In a few lines:
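ACHN or HT-29 cells grown 24 h, then treated with test substance at […] (DMSO) for 24 h. Lysates normalised by protein content and probed by Western blot with anti-p27 antibody. Band density quantified by densitometer against DMSO control, n=2 averaged.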

SMILES strings stand for the structures.

One may read the IC50 as the concentration that gives 50% inhibition. Lower therefore signals higher potency. For orientation: fold induction means the ratio of treated to control signal.

As to `Cc1c(=O)n(C)c(Nc2ccc(I)cc2F)c2c(=O)n(C3CC3)c(=O)n(-c3ccc(C(=O)N(C)C)cc3)c12` [Example 4-93], the 50% inhibitory concentration (IC50) is 10 to 100 nM in experiment [1] and below 10 nM in experiment [2]. Further, the fold induction at 0.1 µM in the experiment with p15 protein and in the experiment with p27 protein was at least 1.5 each time.

In the case of `CCc1ccc(Nc2cc(=O)n(C)c3c2c(=O)n(C2CC2)c(=O)n3-c2cccc(NC(C)=O)c2)c(F)c1` [Example 1-296], the IC50 in experiment [1] is 100 to 1000 nM; in experiment [2], below 10 nM. In addition, the fold induction at 0.1 µM in the experiment on p15 protein and in the experiment on p27 protein was at least 1.5 throughout.

`Cc1c(=O)n(C)c(Nc2ccc(I)cc2F)c2c(=O)n(C3CC3)c(=O)n(-c3cccc(NS(C)(=O)=O)c3)c12` [Example 3-7, N-{3-[3-cyclopropyl-5-(2-fluoro-4-iodophenylamino)-6,8-dimethyl-2,4,7-trioxo-3,4,6,7-tetrahydro-2H-pyrido[4,3-d]pyrimidin-1-yl]phenyl}methanesulfonamide]: the IC50 in experiment [1] and in experiment [2] was below 10 nM in each case. Moreover, the fold induction at 0.1 µM in the experiment on p15 protein and with p27 protein was at least 1.5 in each case.

On to `Cn1c(=O)cc(Nc2ccc(Br)cc2F)c2c(=O)n(C3CC3)c(=O)n(-c3cccc(NS(=O)(=O)CCl)c3)c21` [Example 1-282], for which the values for the IC50 in experiment [1] and in experiment [2] were 100 to 1000 nM and 10 to 100 nM, respectively. Further, the fold induction at 0.1 µM in the experiment on p15 protein and in the experiment with p27 protein was at least 1.5 in each case.

For the molecule `CC(C)S(=O)(=O)Nc1cccc(-n2c(=O)n(C3CC3)c(=O)c3c(Nc4ccc(Br)cc4F)cc(=O)n(C)c32)c1` [Example 1-272], the IC50 in experiment [1] and in experiment [2] was 10 to 100 nM throughout. Further, the fold induction at 0.1 µM with p15 protein and in the experiment with p27 protein was at least 1.5 throughout.

In the case of `CCS(=O)(=O)Nc1cccc(-n2c(=O)n(C3CC3)c(=O)c3c(Nc4ccc(I)cc4F)n(C)c(=O)c(C)c32)c1` [Example 4-2], the IC50 in experiment [1] and in experiment [2] was below 10 nM throughout. The fold induction at 0.1 µM in the experiment with p15 protein and in the experiment on p27 protein was at least 1.5 throughout.

With `Cn1c(=O)cc(Nc2ccc(I)cc2Cl)c2c(=O)n(C3CC3)c(=O)n(-c3cccc(NS(C)(=O)=O)c3)c21` [Example 1-322], the IC50 was 10 to 100 nM in experiment [1] and below 10 nM in experiment [2]. In addition, the fold induction at 0.1 µM in the experiment with p15 protein and in the experiment with p27 protein was at least 1.5 each time.

In the case of `Cc1c(=O)n(C)c(Nc2ccc(I)cc2F)c2c(=O)n(C3CC3)c(=O)n(-c3cccc(N4CCN(C)CC4=O)c3)c12` [Example 4-122], the IC50 was 10 to 100 nM in experiment [1] and below 10 nM in experiment [2]. For the same molecule, the fold induction at 0.1 µM with p15 protein and with p27 protein was at least 1.5 in each case.

For the molecule `Cc1cc(-n2c(=O)n(C3CC3)c(=O)c3c(Nc4ccc(I)cc4F)n(C)c(=O)c(C)c32)ccc1NS(C)(=O)=O` [Example 4-117], the IC50 is 100 to 1000 nM in experiment [1] and below 10 nM in experiment [2]. Moreover, the fold induction at 0.1 µM in the experiment on p15 protein and with p27 protein was at least 1.5 throughout.

In the case of `CC(=O)Nc1cccc(-n2c(=O)n(C3CC3)c(=O)c3c(Nc4ccc(C5CC5)cc4F)n(C)c(=O)c(C)c32)c1` [Example 4-67], the IC50 in experiment [1] was 10 to 100 nM; in experiment [2], below 10 nM. The fold induction at 0.1 µM with p15 protein and with p27 protein was at least 1.5 throughout.

For the molecule `CSc1ccc(Nc2c3c(=O)n(C4CC4)c(=O)n(-c4cccc(NS(C)(=O)=O)c4)c3c(C)c(=O)n2C)c(F)c1` [Example 4-106], the IC50 is 10 to 100 nM in experiment [1] and below 10 nM in experiment [2]. The fold induction at 0.1 µM in the experiment on p15 protein and in the experiment with p27 protein was at least 1.5 each time.

In the case of `Cc1c(=O)n(C)c(Nc2ccc(I)cc2F)c2c(=O)n(C3CC3)c(=O)n(-c3cccc(NC(=O)c4c[nH]cn4)c3)c12` [Example 4-73], the IC50 in experiment [1] was 10 to 100 nM; in experiment [2] it was below 10 nM. Also, the fold induction at 0.1 µM with p15 protein and in the experiment with p27 protein was at least 1.5 in each case.
